Measured values as given in US6784184B2, “5-(arylsulfonyl)-,5-(arylsulfinyl), and 5-(arylsulfanyl)-thiazolidine-2,4-diones useful for inhibition of farnesyl-protein transferase” (Wyeth Holdings Corporation, priority 2001, dated 2004).

Key:
[1] = molecular target: FPTase (K-Ras substrate) (UniProt P29702+P49355); assay: in vitro FTase Inhibition Assay, K-Ras as substrate for farnesylation; assay type: biochemical; conditions: K-Ras used as substrate for farnesylation
Description: (§1) The ability of the compounds of this invention to inhibit FPTase was evaluated in the standard pharmacological in vitro test procedures described below.
(§2) Methods—1. […] 2. Solution #1 is added to FPTase reaction in a volume of […]. 3. Standard reaction mix, […], contains 50 mM Tris (7.5), […], 3 mM MgCl2, 20 mM KCl, 5 mM DTT, 0.2% octyl-B-glucoside, 1% DMSO, […], 10 ng FPTase, and various concentrations of FPTase inhibitors. 4. Incubate for 30-90 min at […] 5. Stop reactions with TCA/SDS (6%/2%), hold at 4° C. for 45-60 min. 6. Filter by manifold or 96 well plate, wash filter 3-5× with TCA (6%). 7. Add scintillant to filters, measure ^3H-FPP incorporation into Ras protein.
(§3) (cpm from precipitated Ras with test compounds)−(background cpm)×100=% inhibition.
(§4) (cpm from precipitated Ras without test compounds)−(background cpm)

[2] = molecular target: FPTase (H-Ras substrate) (UniProt P29702+P49355); assay: in vitro FTase Inhibition Assay, H-Ras as substrate for farnesylation; assay type: biochemical; conditions: H-Ras used as substrate for farnesylation
Description: as §1, §2, §3, §4

[3] = test system: K-ras dependent human colon carcinoma (LoVo); assay: In vivo effects against K-ras dependent human colon carcinoma (LoVo); conditions: Day +35 post tumor cell implantation; 1 mg/kg IP on days 5, 9 and 13; rats
Description: Compounds of this invention were tested for in vivo effects in rats against various tumors. For the compound of Example 114, when tested against a K-ras dependent human colon carcinoma (LoVo), the following results were obtained (Table II): […]

With COc1ccc(S(=O)(=O)C2(CCCC#Cc3ccc(C#N)cc3)SC(=O)NC2=O)cc1 (stereo not shown) [Example 158, 4-{5-[5-(4-Methoxybenzenesulfonyl)-2,4-dioxo-thiazolidin-5-yl]pent-1-ynyl}benzonitrile] the IC50 [1] was 3.8 µM and the IC50 [2] was 0.15 µM.

COc1ccc(S(=O)(=O)C2(CCCC#Cc3cc(NC(=O)OCc4ccccc4)ccc3C)SC(=O)NC2=O)cc1 (stereo not shown) [Example 175, (3-{5-[5-(4-Methoxybenzenesulfonyl)-2,4-dioxothiazolidin-5-yl]pent-1-ynyl}-4-methylphenyl)carbamic Acid Benzyl Ester] showed an IC50 [1] of 0.053 to 0.52 µM and an IC50 [2] of 0.01 to 0.032 µM.

CC[C@]1(O)C[C@H]2CN(CCc3c([nH]c4ccccc34)[C@@](C(=O)OC)(c3cc4c(cc3OC)N(C=O)[C@H]3[C@@](O)(C(=O)OC)[C@H](OC(C)=O)[C@]5(CC)C=CCN6CC[C@]43[C@@H]65)C2)C1 [Vincristine, reference compound] was tested, and the “S/T = No. Survivors/No.Treated” value [3] was 9/10.

Cc1ccc([N+](=O)[O-])cc1C#CCCCC1(S(=O)(=O)c2cccc3ccccc23)SC(=O)NC1=O (stereo not shown) [Example 126, 5-[5-(2-Methyl-5-nitrophenyl)-pent-4-ynyl]-5-(naphthalene-1-sulfonyl)-thiazolidine-2,4-dione] showed an IC50 [1] of 1.7 µM and an IC50 [2] of 0.09 µM.

With Cc1ccc(S(=O)(=O)C2(CC#Cc3ccc(-c4ccccc4)cc3)SC(=O)NC2=O)cc1 (stereo not shown) [Example 169, 5-(3-Biphenyl-4-yl-prop-2-ynyl)-5-(toluene-4-sulfonyl)-thiazolidine-2,4-dione] the IC50 [1] was 1.8 µM and the IC50 [2] was 0.1 µM.

In the case of COc1ccc(S(=O)(=O)C2(CCCC#Cc3ccc(OC(F)(F)F)cc3)SC(=O)NC2=O)cc1 (stereo not shown) [Example 154, 5-(4-Methoxybenzenesulfonyl)-5-[5-(4-trifluoromethoxyphenyl)pent-4-ynyl]-thiazolidine-2,4-dione], the IC50 [1] is reported as 1 to 2.5 µM and the IC50 [2] is reported as 0.07 to 0.15 µM.

O=C1NC(=O)C(CCCC#Cc2ccc(Cl)cc2)(S(=O)(=O)c2ccc(Oc3ccccc3)cc2)S1 (stereo not shown) [Example 106, 5-[5-(4-Chlorophenyl)pent-4-ynyl]-5-(4-phenoxybenzenesulfonyl)-thiazolidine-2,4-dione] gave an IC50 [1] of 1.3 to 1.7 µM and an IC50 [2] of 0.23 to 0.25 µM.

In the case of COc1ccc(S(=O)(=O)C2(CCCC#Cc3ccc(C)cc3C)SC(=O)NC2=O)cc1 (stereo not shown) [Example 136, 5-[5-(2,4-Dimethylphenyl)pent-4-ynyl]-5-(4-methoxybenzenesulfonyl)-thiazolidine-2,4-dione], the IC50 [1] is reported as 1 to 1.9 µM and the IC50 [2] is reported as 0.043 to 0.05 µM.

With Cc1ccc(S(=O)(=O)C2(CCCC#Cc3ccc(S(C)(=O)=O)cc3)SC(=O)NC2=O)cc1 (stereo not shown) [Example 159, 5-[5-(4-Methanesulfonylphenyl)-pent-4-ynyl]-5-(toluene-4-sulfonyl)-thiazolidine-2,4-dione] the IC50 [1] was greater than 10 µM and the IC50 [2] was 0.65 µM.

For Cc1ccc([N+](=O)[O-])cc1C#CCCCC1(S(=O)(=O)c2ccc3ccccc3c2)SC(=O)NC1=O (stereo not shown) [Example 127, 5-[5-(2-Methyl-5-nitrophenyl)pent-4-ynyl]-5-(naphthalene-2-sulfonyl)-thiazolidine-2,4-dione], the IC50 [1] was 1.3 to 1.5 µM and the IC50 [2] was 0.12 to 0.14 µM.

O=C1NC(=O)C(CCCC#Cc2ccc([N+](=O)[O-])cc2)(S(=O)(=O)c2ccc(I)cc2)S1 (stereo not shown) [Example 120, 5-(4-Iodobenzenesulfonyl)-5-[5-(4-nitrophenyl)pent-4-ynyl]-thiazolidine-2,4-dione] gave an IC50 [1] of 0.53 to 1 µM and an IC50 [2] of 0.018 to 0.032 µM.

For COC(=O)Nc1ccc(C)c(C#CCCCC2(S(=O)(=O)c3ccc(OC)cc3)SC(=O)N(C(=O)OC)C2=O)c1 (stereo not shown) [Example 228, Methyl 5-(5-{5-[(methoxycarbonyl)amino]-2-methylphenyl}pent-4-ynyl)-5-[(4-methoxyphenyl)sulfonyl]-2,4-dioxo-1,3-thiazolidine-3-carboxylate], the IC50 [1] was 0.23 to 1 µM and the IC50 [2] was 0.004 to 0.07 µM.

Work on O=C1NC(=O)C(CCCC#Cc2ccc(Cl)cc2)(S(=O)(=O)c2ccc(I)cc2)S1 (stereo not shown) [Example 104, 5-[5-(4-Chlorophenyl)pent-4-ynyl]-5-(4-iodobenzenesulfonyl)-thiazolidine-2,4-dione] yielded an IC50 [1] of 0.23 to 0.9 µM and an IC50 [2] of 0.03 to 0.054 µM.

O=C1NC(=O)C(CCCC#Cc2cc(Cl)ccc2Cl)(S(=O)(=O)c2ccc(Oc3ccncc3)cc2)S1 (stereo not shown) [Example 116, 5-[5-(2,5-Dichlorophenyl)pent-4-ynyl]-5-[4-(pyridin-4-yloxy)benz-enesulfonyl]-thiazolidine-2,4-dione] was tested, and the IC50 [1] was 0.017 to 0.04 µM and the IC50 [2] was 0.005 to 0.01 µM.

COc1ccc(S(=O)(=O)C2(CCCC#Cc3cccc(Cl)c3)SC(=O)NC2=O)cc1 (stereo not shown) [Example 102, 5-[5-(3-Chlorophenyl)pent-4-ynyl]-5-(4-methoxybenzenesulfonyl)-thiazolidine-2,4-dione] gave an IC50 [1] of 1.4 µM and an IC50 [2] of 0.03 to 0.032 µM.

COc1ccc(S(=O)(=O)C2(CCCC#Cc3cc(NC(=O)OCC(C)C)ccc3C)SC(=O)NC2=O)cc1 (stereo not shown) [Example 182, (3-{5-[5-(4-Methoxybenzenesulfonyl)-2,4-dioxothiazolidin-5-yl]pent-1-ynyl}-4-methylphenyl)carbamic Acid Isobutyl] gave an IC50 [1] of 0.032 to 0.056 µM and an IC50 [2] of 0.005 to 0.01 µM.

With COC(=O)Nc1ccc(C)c(C#CCCCC2(S(=O)(=O)c3ccc(OC)cc3)SC(=O)NC2=O)c1 (stereo not shown) [Example 178, (3-{5-[5-(4-Methoxybenzenesulfonyl)-2,4-dioxothiazolidin-5-yl]pent-1-ynyl}-4-methylphenyl)carbamic Acid Methyl Ester] the IC50 [1] was 0.01 µM and the IC50 [2] was 0.017 to 0.032 µM.

With O=C1NC(=O)C(CCCC#Cc2ccc(Cl)cc2)(S(=O)(=O)c2cccc3cccnc23)S1 (stereo not shown) [Example 109, 5-[5-(4-Chlorophenyl)pent-4-ynyl]-5-(quinoline-8-sulfonyl)-thiazolidine-2,4-dione] the IC50 [1] was 1.4 to 2.1 µM and the IC50 [2] was 0.065 to 0.13 µM.

CCCCOc1ccc(S(=O)(=O)C2(CCCC#Cc3ccc(Cl)cc3)SC(=O)NC2=O)cc1 (stereo not shown) [Example 112, 5-(4-Butoxybenzenesulfonyl)-5-[5-(4-chlorophenyl)-pent-4-ynyl]-thiazolidine-2,4-dione] was tested, and the IC50 [1] was 1.4 to 1.5 µM and the IC50 [2] was 0.59 to 0.6 µM.

For O=C1NC(=O)C(CCCC#Cc2cc(Cl)ccc2Cl)(S(=O)(=O)c2ccc(I)cc2)S1 (stereo not shown) [Example 115, 5-[5-(2,5-Dichloro-phenyl)pent-4-ynyl]-5-(4-iodobenzenesulfonyl)-thiazolidine-2,4-dione], the IC50 [1] was 0.16 to 0.23 µM and the IC50 [2] was 0.012 to 0.32 µM.

With COc1ccc(S(=O)(=O)C2(CCCC#Cc3cc([N+](=O)[O-])ccc3OC)SC(=O)NC2=O)cc1 (stereo not shown) [Example 123, 5-(4-Methoxybenzenesulfonyl)-5-[5-(2-methoxy-5-nitrophenyl)pent-4-ynyl]-thiazolidine-2,4-dione] the IC50 [1] was 1 to 2.8 µM and the IC50 [2] was 0.08 to 0.082 µM.

COc1ccc(S(=O)(=O)C2(CCCC#Cc3ccc(NC(=O)OC(C)(C)C)cc3C(F)(F)F)SC(=O)NC2=O)cc1 (stereo not shown) [Example 151, (4-{5-[5-(4-Methoxybenzenesulfonyl)-2,4-dioxothiazolidin-5-yl]pent-1-ynyl}-3-trifluoromethylphenyl)-carbamic Acid tert-Butyl Ester] was tested, and the IC50 [1] was 0.21 to 1 µM and the IC50 [2] was 0.53 to 0.7 µM.

COc1ccc(S(=O)(=O)C2(CCCC#Cc3cc(NC(=O)OC(C)(C)C)ccc3C)SC(=O)NC2=O)cc1 (single isomer, unassigned; more polar) [Example 223, Enantiomer of(3-{5-[5-(4-Methoxybenzenesulfonyl)-2,4-dioxothiazolidin-5-yl]pent-1-ynyl}-4-methylphenyl)carbamic Acid tert-Butyl Ester (more polar)] showed an IC50 [1] greater than 1 µM and an IC50 [2] of 0.063 µM.

For COc1ccc(S(=O)(=O)C2(CCCC#Cc3ccc([N+](=O)[O-])cc3C)SC(=O)NC2=O)cc1 (stereo not shown) [Example 130, 5-(4-Methoxybenzenesulfonyl)-5-[5-(2-methyl-4-nitrophenyl)-pent-4-ynyl]-thiazolidine-2,4-dione], the IC50 [1] was 0.32 to 1 µM and the IC50 [2] was 0.023 to 0.056 µM.

Work on Cc1ccc(C(=O)NC(C)(C)C)cc1C#CCCCC1(S(=O)(=O)c2ccc(I)cc2)SC(=O)NC1=O (stereo not shown) [Example 147, N-tert-Butyl-3-{5-[5-(4-iodo-benzenesulfonyl)-2,4-dioxothiazol-idin-5-yl]-pent-1-ynyl}-4-methylbenzamide] yielded an IC50 [1] of 0.08 to 0.1 µM and an IC50 [2] of 0.0068 to 0.21 µM.

For COc1ccc(S(=O)(=O)C2(CCCC#Cc3ccc(C(F)(F)F)cc3)SC(=O)NC2=O)cc1 (stereo not shown) [Example 153, 5-(4-Methoxybenzenesulfonyl)-5-[5-(4-trifluoromethylphenyl)pent-4-ynyl]-thiazolidine-2,4-dione], the IC50 [1] was 1 to 6.1 µM and the IC50 [2] was 0.17 to 0.2 µM.

In the case of Cc1ccc(C#CCCCC2(S(=O)(=O)c3ccc(I)cc3)SC(=O)NC2=O)c(C)c1 (stereo not shown) [Example 137, 5-[5-(2,4-Dimethylphenyl)pent-4-ynyl]-5-(4-iodobenzenesulfonyl)-thiazolidine-2,4-dione], the IC50 [1] is reported as 0.037 to 0.8 µM and the IC50 [2] is reported as 0.021 to 0.4 µM.

COc1ccc(S(=O)(=O)C2(CCCC#Cc3cc(Cl)ccc3C)SC(=O)NC2=O)cc1 (stereo not shown) [Example 138, 5-[5-(5-Chloro-2-methylphenyl)pent-4-ynyl]-5-(4-methoxybenzene-sulfonyl)thiazolidine-2,4-dione] was tested, and the IC50 [1] was 0.3 to 0.42 µM and the IC50 [2] was 0.023 to 0.032 µM.
